Test [1] deals with ovarian cancer cell. The conditions noted are these: in vitro study; cited from earlier work.
Test [2] deals with A2780 epithelial ovarian cancer cells. Nature of the test: Cancer cell ECM invasion in OTME-Chip (A2780). Type of test: cell-based, human. The note with it: OTME-Chip with extravasated platelets, analyzed for three days; Revacept 40 μg/mL, cisplatin 6 μg/mL. An excerpt: OTME-Chip predicts that pharmaceutical inhibition of GPVI arrests metastasis and supports chemotherapy. The potential consequences of pharmaceutical targeting of GPVI on platelets in cancer were then investigated. There are currently no FDA-approved anti-GPVI drugs in the market. However, Revacept is an inhibitor that has been successfully evaluated against collagen-mediated platelet adhesion in phase I clinical trials of atherosclerosis and stroke. Revacept inhibited the platelet GPVI and tumor galectin-3 interaction in a colon carcinoma cell line. This drug is a fusion protein consisting of the Fc part of human IgG, a short hinge region, a specific linker sequence, and the extracellular part of human platelet GPVI with a molecular mass of 150 kDa. […] Thereafter, these chips were analyzed for three days (FIG. 7). […]
Cell invasion. […] Invasion dynamics of live stained cancer cells (green) into the Chip ECM chamber hydrogel was visualized using fluorescence microscopy (Zeiss Axio Observer; LD Plan Neofluar 10×, NA 0.4). […] Images were analyzed and processed using software ZEN 2.3 lite (ZEISS). […] The ECM invasion of cancer cells was calculated as the ratio of area occupied by invaded cancer cells in ECM chamber vs. the total area of ECM chamber.

In test [3] the test system is growth factors (PDGF, VEGF, and TGFβ) and cytokines (IL-8, MMP9, and IL-6). Nature of the test: Growth factors and cytokines in OTME-Chip tumor chamber effluents (multiplex). Type of test: cell-based, human. The conditions noted are these: Revacept 40 μg/mL, cisplatin 6 μg/mL. The procedure: (§1) Drugs. Cisplatin (Fisher Scientific, USA) and Revacept (Advancecor GamBH, Germany) were dissolved in DMSO and PBS/4% Mannitol/1% Sucrose respectively to prepare master stocks (1 mg/mL). These were further diluted in RMPI-1640 media to obtain respective working concentrations of cisplatin (6 μg mL^−1) and Revacept (40 μg mL^−1). They were perfused into the chip tumor chamber individually or in combination in presence or absence of extravasated platelets.
Growth factors and cytokines. Growth factors and cytokines present in OTME-Chip tumor chamber media effluents were measured using multiplex (xMAP) magnetic bead-based technology provided by Millipore. Media effluents collected from tumor chamber during different time points were analyzed for cytokines and growth factors using MILLIPLEX® MAP Human cytokine/chemokine magnetic bead panel kit (Millipore, CAS-HCYTOMAG-60K) by following previously established protocols. Assays were run in a pre-calibrated Luminex MAPGPIX reader. The mean fluorescent intensity (MFI) of the magnetic beads correlating with the concentration (pg/mL) of respective cytokines and growth factors was calculated using xPONENT 4.2 software and data analysis was done with Milliplex Analyst 5.1 software (Millipore). The concentration of cytokines obtained in each sample was normalized with respect to controls and the assays were run in triplicate. […]

Test [4] has as its system A2780 epithelial ovarian cancer cells. Nature of the test: Cancer cell proliferation assay (Ki67) in OTME-Chip. The format is cell-based, human. The note with it: OTME-Chip with extravasated platelets; Revacept 40 μg/mL, cisplatin 6 μg/mL. As to the method: as §1
Cancer cell proliferation assay. Isolated cancer cells were immunostained with monoclonal anti-Ki67 antibody-Alexa Fluor488 conjugate (Abcam). The fluorescence intensity was then measured with a plate reader using excitation/emission wavelengths of 488/519 nm. Platelet free cancer cells obtained from other chips during similar time points were kept as control. Proliferation rate was measured as a percentage ratio of fluorescent intensities of experimental and control cells.

Test [5] concerns metastasis and cell proliferation genes. Nature of the test: Transcriptional analysis (qRT-PCR) of cancer cells from OTME-Chip. Type of test: cell-based, human. The conditions noted are these: cancer cells obtained from the chips, over time; Revacept 40 μg/mL, cisplatin 6 μg/mL. As to the method: as §1
Quantitative real-time PCR. Cancer cell total RNA was isolated using the Arcturus PicoPure RNA Isolation Kit specifically (Thermofisher Scientific, CAS-KIT0214) designed to recover high-quality RNA consistently from fewer cells. Cells isolated from the Chip were washed in prescribed in buffer (0.9 mL of 1×PBS/10% BSA; 0.1 mL of 0.5 M EDTA) and total cellular RNA was isolated by using the manufacturer's protocol. […] The cDNA prepared was further used for the subsequent quantitative qRT-PCR reactions using SyBR green master mix (Applied Biosystems™ SYBR™ Green select PCR Master Mix) and gene specific primers. […] Gene expression was analyzed by quantifying the relative fold changes in mRNA levels of individual genes using comparative Cycle Threshold (CT)/ACT method.

The test system of test [6] is A2780 epithelial ovarian cancer cells. Nature of the test: RNA sequencing and differential gene analysis of chip-derived tumors. The conditions noted are these: RNA-seq of chip-derived tumors. The format is cell-based, human. As to the method: Validation of cancer cell-platelet-drug crosstalk within OTME-Chip with next generation RNA-sequencing. It was recently shown that a collaboration of organ-chip technology with RNA-seq analysis is a powerful tool to validate preclinical studies and derive unbiased clinical predictions. Therefore, to solidify insights into the platelet-tumor signaling nexus and the therapeutic effect of Revacept, transcriptomic profiling was performed of different chip-derived tumors through RNA sequencing. Through RNA sequencing and differential gene analysis, expression of 12452 genes in the OTME-Chip relative to Control-Chip was detected. Similarly, expression of 5566, 6909 and 3821 genes in the Cx-OTME-Chip, CxRx-OTME-Chip and KO-OTME-Chip respectively relative to Control-Chip was detected. […]
RNA sequencing and analysis. […] Isolated mRNA samples were then analyzed using the NextSeq 500 platform (Illumina) and sample preparation was performed using TruSeqRNA sample preparation with paired-end read length of 2×75 bases (Molecular Genomics Workspace, Texas A&M University, College Station, TX). Then HISAT2 was used to splice align the reads to latest ENSEMBL-release-102 human genome/transcriptome (GRCh38.p13). […] Differentially expressed genes were then evaluated for all groups using DESeq2 package in R®. […]

Test [7] has the same test system. Nature of the test: Cell cycle analysis of cancer cells from OTME-Chip. Type of test: cell-based, human. The conditions noted are these: OTME-Chip with extravasated platelets, compared to untreated controls; Revacept 40 μg/mL, cisplatin 6 μg/mL. As to the method: as §1
Cell cycle analysis. Cancer cells isolated via Accutase™ treatment from the chip were fixed in 70% ethanol at […] for 6 hr and permeabilized. Cells were then incubated with 100 μg mL^−1 Propidium Iodide (PI) (Sigma-Aldrich), and 50 μg mL^−1 ribonuclease A in the dark for 30 min at 37° C. Flow cytometry was performed on a BD Accuri C6 flow cytometer (BD Biosciences, USA) and cell cycle analysis was done using CellQuest Pro software.

Consider `CC(=O)Oc1ccccc1C(=O)O` [aspirin, acetylsalicylic acid], for which the “platelet-induced ovarian cancer cell invasion” value in test [1] was “attenuated”.
`N.N.[Cl][Pt][Cl]` [cisplatin, reference compound]: the “ECM invasion of cancer cells / tumor invasiveness” value in test [2] is reported as “modest effect”. In addition, in test [3], the “concentration of growth factors (PDGF, VEGF, TGFβ) and cytokines (IL-8, MMP9, IL-6)” value was “modest effect”. In addition, the “proliferation rate of the cancer cells” value in test [4] was “modest effect”. For the same compound, the “platelet-induced upregulation of metastasis and cell proliferation genes” value in test [5] is “altered overtime modestly”. For the same compound, the “expression of genes of signaling pathways (NFκB, TGFβ/Smad, Hippo, MAPK, mTOR, Notch, PI3-Akt, Wnt), volcano plots” value in test [6] was “reduced”. Further, the “expression of these pathways, heatmaps of expression profiles” value in test [6] (different chip conditions) is listed as “downregulated”. Besides, the “G2/M phase in cancer cells” value in test [7] is given as “modest effect”.

(Values after US20240327768A1, “MICROFLUIDIC DEVICE MIMICKING TUMOR MICROENVIRONMENT” (The Texas A&M University System, priority 2021, published 2024).)
